# Source: patent US20240207308A1, “METHOD FOR CULTURING DENDRITIC CELLS” (NANOFAENTECH CO., LTD., priority 2021, published 2024)
# How the values were obtained:
# Assay type in all cases: cell-based, mouse
# [1] = test system: spleen dendritic cells and T cells; test: ELISA of cytokines after 4 days co-culture of spleen dendritic cells and allogeneic T cells; details: dendritic cells activated with LPS and poly (I:C), co-culture 4 days
# Experimental: Since the main role of activated dendritic cells is to induce antigen-specific T-cell activation and proliferation according to the stimulatory properties, it was investigated whether self-activated dendrite cells after culturing and dendritic cells activated with LPS after culturing with addition of peptides can induce T cell proliferation by mixed lymphocyte reaction (MLR) test. The spleen dendritic cells isolated from C57B/L6 mice were self-activated for 24 hours, otherwise, when cultured with addition of peptides or fibronectin, the cells were treated with LPS and activated. Spleen T cells from Balb/c mice were isolated using a CD4^+/CD8^+ T cell isolation kit (Miltenyi Biotec, Bergisch-Gladbach, Germany) and MACS column (Miltenyi Biotec), followed by 10 μM CFSE staining (Molecular Probes; Thermo Fisher Scientific Inc., USA). The activated dendritic cells and CFSE-stained T cells were co-cultured at a ratio of 1:20 for 4 days, and the T cell proliferation level was measured as a percentage of cells with decreased CFSE. […] In FIG. 22, the amount of cytokines secreted after co-culture of spleen dendritic cells and T cells for 4 days was measured by ELISA method. […]
# spleen dendritic cells = test: Flow cytometry of CD86, MHC-II, CD80, CD40 on cultured spleen dendritic cells (self-activation)
# Experimental: Mouse spleen dendritic cells were obtained by adding EDTA-BSS (Balanced Salt Solution) buffer and collagenase solution (DMEM containing 100 units of collagenase type IV, medium containing low glucose) to spleens of female C57BL/6 mice and cutting it with surgical scissors, mixing the same with 6 mL of collagenase treatment solution, and incubating the mixture for 30 minutes. The separated whole spleen tissue was filtered using a 70 μm cell strainer (Falcon), followed by centrifugation at 1800 rpm for 5 minutes thus to separate the cells. Red blood cells were removed by adding red blood cell lysis buffer (Sigma-Aldrich) to the cells and washed twice with RPMI-1640 medium containing 10% fetal bovine serum (FBS). Dendritic cells were reacted with CD11c^+ antibody-bound microbeads and isolated using CD11c Microbeads Ultrapure (MACS, Milteni Biotec, USA).
# In FIG. 2, in order to determine whether self-activation occurs when primary dendritic cells isolated from the spleen are cultured, dendritic cells were dispensed in a 24-well plate at 2×10^5/mL, and after culturing for 6 hours in RPMI-1640 medium at 37° C. under 5% CO2 condition, the expression levels of MHC-II, CD86, CD80 and CD40 were analyzed on the surface of dendritic cells using a flow cytometer (MACSQuant VYB flow cytometer, Miltenyi Biotec). Results measured using a flow cytometer were analyzed using FlowJo v10 (Tree Star, Ashland). The expression levels of CD86, CD80 and CD40 were shown as the percentage of cells stained with CD11c, and the expression level of MHC-II was shown as mean fluorescence intensity (MFI), which is the mean fluorescence intensity of fluorescence.
# In FIG. 7, when culturing spleen dendritic cells, each of the prepared peptides was added at a concentration of 200 μg/mL and the expression level of CD86 was measured 6 hours after culture. When each peptide was used alone for treatment, the expression of CD86 was not inhibited in spleen dendritic cells. […] Compared to when the cells were treated with these three kinds of peptides, the expression was not inhibited even when the two kinds of peptides were used together for treatment. * indicates statistical significance as P<0.05 or less compared to the P1, P1-2, and P2-1 conditions.
# In FIG. 9, peptides containing P1 and P2 and amino acids of these peptides as well as P3 peptide in a combination of three types were added to the spleen dendritic cell culture medium, and after culturing for 6 hours, the expression level of CD86 was measured by flow cytometry.
# In FIG. 24, different concentrations of LP1, LP2 and LP3 were added to reach a concentration of 800 μg/mL, and spleen dendritic cells (2×10^5/mL) were cultured for 6 hours or 24 hours, and the CD86 expression level was measured by flow cytometry (MACSQuant VYB flow cytometer, Miltenyi Biotec). The measured results were analyzed using FlowJo v10 (Tree Star, Ashland).
# In FIG. 25, when spleen primary dendritic cells were dispensed at 2×10^5/mL and cultured for 24 hours while scrambled peptides of S-LP1, S-LP2 and S-LP3 were each added at a concentration of 800 μg/mL, the increase in the expression of CD86 was not inhibited. Further, the expression of CD86 was not reduced even when the scrambled peptides S-P1, S-P2 and S-P3 were simultaneously treated at a concentration of 600 μg/mL, respectively.
# [2] = test system: CD8+ T cells from OT-I transgenic mice; test: Proliferation of CFSE-stained OT-I CD8+ T cells co-cultured with OVA peptide-treated spleen dendritic cells; details: LPS-stimulated dendritic cells, co-culture 1:20, 4 days
# Experimental: The spleen dendritic cells (2×10^6/mL) were self-activated in a 96-well plate for 24 hours, or self-activation was inhibited by adding a linker peptide, and then either not treated with LPS or stimulated with LPS for 24 hours. Dendritic cells were cultured with 10 μM ovalbumin (OVA) peptide SIINFEKL (InvivoGen, San Diego, California, USA) for 1 hour. CD8^+ T cells were isolated from OT-I transgenic mice using a CD8 T cell isolation kit (Miltenyi Biotec) and fluorescence-stained with 10 μM carboxyfluorescein succinimidyl ester (CFSE) for 10 minutes. After co-culture of CD8^+ T cells (1×10^5) and DCs (5×10^3) treated with OVA peptide at a ratio of 1:20 for 4 days, a proliferation level of T cells was measured in percentage of cells that are negative for CFSE fluorescence-staining.
substance,measurement,setting,value
fibronectin,"secretion of IFN-γ, IL-6, TNF-α and IL-5",[1],extremely low
same,expression level of CD86 or MHC-II (self-activation),"spleen dendritic cells; 200 μg/mL (laminin 200 μg/mL or higher), cultured 6 hours",self-activation did not occur
same,expression of CD86 and MHC-II as well as CD80 and CD40,"spleen dendritic cells; 200 μg/mL, cultured 6 hours",not increased
same,concentration most effective for self-activation of spleen dendritic cells,spleen dendritic cells; cultured 6 hours,200 µg/mL
same,"expression of MHC-II, CD80 and CD40 in addition to CD86","spleen dendritic cells; cultured 6 hours or 24 hours, peptides 200 μg/mL each",significantly inhibited
same,T cell proliferation (cells negative for CFSE),[2],very weak ability to induce T cell proliferation
